What was measured:
[1] = target: T1, Serine/threonine-protein kinase Nek3 (Homo sapiens) (UniProt P51956); assay: Selectivity interaction (KinomeScan (DiscoverX)) EUB0000595a NEK3; conditions: at 10 µM
T1 sequence (whole entry): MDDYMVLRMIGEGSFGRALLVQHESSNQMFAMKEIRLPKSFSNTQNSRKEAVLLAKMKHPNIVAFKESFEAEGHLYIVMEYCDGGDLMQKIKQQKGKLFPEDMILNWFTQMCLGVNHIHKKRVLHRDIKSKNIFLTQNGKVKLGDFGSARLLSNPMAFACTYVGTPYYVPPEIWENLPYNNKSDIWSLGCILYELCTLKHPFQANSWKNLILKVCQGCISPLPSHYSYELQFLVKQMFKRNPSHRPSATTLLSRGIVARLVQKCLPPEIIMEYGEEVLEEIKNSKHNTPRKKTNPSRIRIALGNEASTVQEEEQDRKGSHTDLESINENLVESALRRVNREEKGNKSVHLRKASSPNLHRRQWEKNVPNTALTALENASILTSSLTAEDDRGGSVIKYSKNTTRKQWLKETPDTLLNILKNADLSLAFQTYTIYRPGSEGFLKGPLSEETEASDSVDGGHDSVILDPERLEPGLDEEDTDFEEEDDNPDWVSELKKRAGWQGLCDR

[2] = target: T2, Discoidin domain-containing receptor 2 (Homo sapiens) (UniProt Q16832); assay: Selectivity interaction (KinomeScan (DiscoverX)) EUB0001079a DDR2; conditions: at 1 µM
T2 sequence (whole entry): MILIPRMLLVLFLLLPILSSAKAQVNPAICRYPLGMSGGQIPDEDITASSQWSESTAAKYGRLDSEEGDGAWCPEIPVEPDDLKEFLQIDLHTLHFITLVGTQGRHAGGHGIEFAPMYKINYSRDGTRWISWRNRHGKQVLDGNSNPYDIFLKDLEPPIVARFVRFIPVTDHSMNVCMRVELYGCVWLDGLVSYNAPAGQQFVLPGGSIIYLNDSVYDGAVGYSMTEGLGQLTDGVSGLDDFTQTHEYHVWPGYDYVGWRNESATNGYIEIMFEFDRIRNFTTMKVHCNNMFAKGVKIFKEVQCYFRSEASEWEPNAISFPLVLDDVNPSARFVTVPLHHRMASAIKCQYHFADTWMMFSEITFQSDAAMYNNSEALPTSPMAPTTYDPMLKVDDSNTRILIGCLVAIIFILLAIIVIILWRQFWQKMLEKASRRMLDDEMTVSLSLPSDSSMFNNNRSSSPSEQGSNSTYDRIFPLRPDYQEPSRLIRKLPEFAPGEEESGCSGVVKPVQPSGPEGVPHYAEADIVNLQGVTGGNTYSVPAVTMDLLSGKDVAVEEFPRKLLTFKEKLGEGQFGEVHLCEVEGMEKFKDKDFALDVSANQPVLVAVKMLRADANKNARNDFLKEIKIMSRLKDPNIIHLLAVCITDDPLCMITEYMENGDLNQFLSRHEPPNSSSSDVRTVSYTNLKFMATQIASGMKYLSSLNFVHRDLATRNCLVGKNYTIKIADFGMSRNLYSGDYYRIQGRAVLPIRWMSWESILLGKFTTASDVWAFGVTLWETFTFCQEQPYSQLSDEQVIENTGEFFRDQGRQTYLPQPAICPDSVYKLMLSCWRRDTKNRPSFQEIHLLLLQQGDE

[3] = target: Tyrosine-protein kinase Lyn (Homo sapiens, UniProt P07948); assay: Selectivity interaction (Kinase screening (Upstate/Millipore)) EUB0000604a LYN
[4] = target: Serine/threonine-protein kinase MRCK gamma (Homo sapiens) (UniProt Q6DT37); assay: Selectivity interaction (KinomeScan (DiscoverX)) EUB0001619a CDC42BPG; conditions: at 1 µM
[5] = target: T3, Serine/threonine-protein kinase Sgk3 (Homo sapiens) (UniProt Q96BR1); assay: Selectivity interaction (SelectScreen profiling (Invitrogen)) EUB0000607a SGK3; conditions: at 2 µM
T3 sequence (whole entry): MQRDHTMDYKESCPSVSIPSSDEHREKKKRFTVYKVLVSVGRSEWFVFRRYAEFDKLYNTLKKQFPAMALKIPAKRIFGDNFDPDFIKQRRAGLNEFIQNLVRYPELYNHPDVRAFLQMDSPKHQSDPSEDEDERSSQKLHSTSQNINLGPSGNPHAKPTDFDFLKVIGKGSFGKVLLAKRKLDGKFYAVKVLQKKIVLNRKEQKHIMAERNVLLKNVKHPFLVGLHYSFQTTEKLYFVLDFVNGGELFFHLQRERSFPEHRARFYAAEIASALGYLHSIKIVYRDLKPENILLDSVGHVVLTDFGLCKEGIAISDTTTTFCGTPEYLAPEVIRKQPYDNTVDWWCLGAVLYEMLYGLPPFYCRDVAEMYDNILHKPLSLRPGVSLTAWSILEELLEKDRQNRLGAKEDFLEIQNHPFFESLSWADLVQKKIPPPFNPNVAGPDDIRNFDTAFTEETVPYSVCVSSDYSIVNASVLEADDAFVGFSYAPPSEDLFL

[6] = target: Tyrosine-protein kinase ABL2 (Homo sapiens, UniProt P42684); assay: Selectivity interaction (ActivX KiNativ screen (kinase selectivity in THP-1 cell lysates)) EUB0000639a ABL2; assay type: subcellular; conditions: lysate, at 0.2 µM
[7] = target: T4, Serine/threonine-protein kinase RIO3 (Homo sapiens) (UniProt O14730); assay: Selectivity interaction (KinomeScan (DiscoverX)) EUB0000655a RIOK3; conditions: at 10 µM
T4 sequence (whole entry): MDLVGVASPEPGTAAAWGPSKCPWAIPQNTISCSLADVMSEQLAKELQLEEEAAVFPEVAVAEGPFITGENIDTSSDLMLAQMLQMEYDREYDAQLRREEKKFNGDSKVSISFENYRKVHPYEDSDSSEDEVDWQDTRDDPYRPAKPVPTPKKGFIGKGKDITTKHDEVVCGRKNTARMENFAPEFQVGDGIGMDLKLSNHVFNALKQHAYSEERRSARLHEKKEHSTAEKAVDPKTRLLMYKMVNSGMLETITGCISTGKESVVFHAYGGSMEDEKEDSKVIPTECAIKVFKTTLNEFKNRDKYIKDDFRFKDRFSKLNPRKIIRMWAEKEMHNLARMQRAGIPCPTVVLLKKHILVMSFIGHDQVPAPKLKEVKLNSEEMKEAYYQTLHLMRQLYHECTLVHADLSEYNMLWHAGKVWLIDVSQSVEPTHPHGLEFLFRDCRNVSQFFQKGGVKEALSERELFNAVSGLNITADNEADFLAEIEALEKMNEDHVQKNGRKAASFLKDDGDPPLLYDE

Tyrosine-protein kinase ABL2, sequence (P42684 whole entry): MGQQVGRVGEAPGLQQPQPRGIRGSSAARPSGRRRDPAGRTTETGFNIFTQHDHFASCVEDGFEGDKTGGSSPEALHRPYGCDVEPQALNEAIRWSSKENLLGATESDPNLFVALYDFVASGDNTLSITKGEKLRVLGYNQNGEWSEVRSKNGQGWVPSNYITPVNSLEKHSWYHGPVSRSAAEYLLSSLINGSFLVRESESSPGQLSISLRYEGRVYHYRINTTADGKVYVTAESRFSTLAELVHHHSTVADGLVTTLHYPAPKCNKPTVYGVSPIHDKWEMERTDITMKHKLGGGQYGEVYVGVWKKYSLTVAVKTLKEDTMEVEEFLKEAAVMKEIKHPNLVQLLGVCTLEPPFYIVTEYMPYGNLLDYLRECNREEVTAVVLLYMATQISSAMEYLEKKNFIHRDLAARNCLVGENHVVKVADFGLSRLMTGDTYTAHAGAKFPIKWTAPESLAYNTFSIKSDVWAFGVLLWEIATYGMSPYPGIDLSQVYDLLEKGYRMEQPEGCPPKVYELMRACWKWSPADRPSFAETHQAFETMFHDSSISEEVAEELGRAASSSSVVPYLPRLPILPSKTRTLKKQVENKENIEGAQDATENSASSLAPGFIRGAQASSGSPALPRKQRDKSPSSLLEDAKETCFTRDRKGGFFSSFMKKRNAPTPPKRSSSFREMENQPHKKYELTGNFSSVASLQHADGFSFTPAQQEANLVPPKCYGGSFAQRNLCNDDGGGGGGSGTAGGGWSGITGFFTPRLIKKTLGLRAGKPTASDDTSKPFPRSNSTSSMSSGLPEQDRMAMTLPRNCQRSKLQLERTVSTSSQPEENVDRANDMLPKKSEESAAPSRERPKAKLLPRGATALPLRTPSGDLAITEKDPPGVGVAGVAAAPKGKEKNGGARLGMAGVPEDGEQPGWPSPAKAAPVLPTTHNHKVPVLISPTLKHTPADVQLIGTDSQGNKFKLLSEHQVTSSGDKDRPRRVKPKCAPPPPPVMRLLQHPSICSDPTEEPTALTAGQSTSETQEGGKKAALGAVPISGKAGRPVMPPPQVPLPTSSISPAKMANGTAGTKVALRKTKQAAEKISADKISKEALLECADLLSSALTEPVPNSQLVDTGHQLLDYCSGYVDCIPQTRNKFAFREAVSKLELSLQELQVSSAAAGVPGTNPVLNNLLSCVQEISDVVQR
Serine/threonine-protein kinase MRCK gamma (Homo sapiens), sequence (Q6DT37 whole entry): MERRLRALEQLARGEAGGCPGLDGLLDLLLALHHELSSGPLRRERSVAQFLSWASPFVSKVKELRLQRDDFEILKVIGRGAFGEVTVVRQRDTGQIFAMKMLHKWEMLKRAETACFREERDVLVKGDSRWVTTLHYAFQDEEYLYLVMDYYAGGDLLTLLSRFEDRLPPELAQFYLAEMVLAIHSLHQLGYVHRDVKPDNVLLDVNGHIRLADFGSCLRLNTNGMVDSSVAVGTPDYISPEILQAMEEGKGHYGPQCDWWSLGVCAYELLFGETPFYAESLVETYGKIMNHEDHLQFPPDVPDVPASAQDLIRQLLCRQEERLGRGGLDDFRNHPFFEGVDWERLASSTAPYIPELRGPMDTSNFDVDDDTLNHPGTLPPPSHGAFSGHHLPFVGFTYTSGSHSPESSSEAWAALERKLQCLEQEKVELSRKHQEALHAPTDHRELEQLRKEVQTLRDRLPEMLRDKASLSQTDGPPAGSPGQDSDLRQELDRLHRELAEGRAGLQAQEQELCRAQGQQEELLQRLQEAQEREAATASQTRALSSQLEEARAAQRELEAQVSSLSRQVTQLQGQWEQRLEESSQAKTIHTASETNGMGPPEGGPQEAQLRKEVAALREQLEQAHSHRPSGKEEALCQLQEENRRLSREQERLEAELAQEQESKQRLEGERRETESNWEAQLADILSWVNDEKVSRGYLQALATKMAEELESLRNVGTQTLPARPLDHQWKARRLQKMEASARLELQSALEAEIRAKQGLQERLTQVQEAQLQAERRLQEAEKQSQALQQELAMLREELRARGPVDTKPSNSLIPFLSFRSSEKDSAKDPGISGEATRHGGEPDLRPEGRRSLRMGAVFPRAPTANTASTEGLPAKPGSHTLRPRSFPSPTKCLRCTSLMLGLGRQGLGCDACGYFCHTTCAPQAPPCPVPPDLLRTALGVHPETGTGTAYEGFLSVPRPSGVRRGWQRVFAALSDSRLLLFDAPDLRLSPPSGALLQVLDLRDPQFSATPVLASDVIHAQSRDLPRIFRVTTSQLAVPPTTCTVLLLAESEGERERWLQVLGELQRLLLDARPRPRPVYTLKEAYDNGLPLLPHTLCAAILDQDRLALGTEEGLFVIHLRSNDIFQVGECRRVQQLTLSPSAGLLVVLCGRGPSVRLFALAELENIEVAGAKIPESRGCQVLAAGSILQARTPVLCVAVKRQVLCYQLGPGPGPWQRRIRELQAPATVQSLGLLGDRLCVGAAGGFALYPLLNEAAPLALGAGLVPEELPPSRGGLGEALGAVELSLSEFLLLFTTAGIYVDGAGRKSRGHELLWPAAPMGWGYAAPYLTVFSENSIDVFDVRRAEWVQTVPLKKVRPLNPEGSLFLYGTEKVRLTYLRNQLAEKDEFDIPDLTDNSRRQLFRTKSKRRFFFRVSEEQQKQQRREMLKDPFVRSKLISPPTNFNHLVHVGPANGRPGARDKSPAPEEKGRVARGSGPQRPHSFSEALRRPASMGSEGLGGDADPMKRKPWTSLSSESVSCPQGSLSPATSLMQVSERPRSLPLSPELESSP
Tyrosine-protein kinase Lyn, sequence (P07948 2-512 limits assumed): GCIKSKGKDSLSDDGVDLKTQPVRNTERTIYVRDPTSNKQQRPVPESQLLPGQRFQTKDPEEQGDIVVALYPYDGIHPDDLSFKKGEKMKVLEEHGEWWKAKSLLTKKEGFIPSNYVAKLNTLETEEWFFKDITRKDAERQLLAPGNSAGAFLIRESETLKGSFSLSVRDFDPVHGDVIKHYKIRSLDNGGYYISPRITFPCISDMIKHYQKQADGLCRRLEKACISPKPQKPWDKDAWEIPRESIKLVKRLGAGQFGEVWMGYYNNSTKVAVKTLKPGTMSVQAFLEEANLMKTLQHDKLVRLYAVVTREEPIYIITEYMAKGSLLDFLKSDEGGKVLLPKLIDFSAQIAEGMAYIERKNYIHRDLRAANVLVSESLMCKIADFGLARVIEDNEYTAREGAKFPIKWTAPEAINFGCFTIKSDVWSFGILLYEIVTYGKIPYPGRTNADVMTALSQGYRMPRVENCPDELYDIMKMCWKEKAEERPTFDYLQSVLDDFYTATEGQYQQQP

COCC(=O)NC/C=C/c1ccc2ncnc(Nc3ccc(Oc4ccc(C)nc4)c(C)c3)c2c1 [CP-724714]
% of control [1]: 95%

Nc1cnc(N2CCc3cc(S(=O)(=O)Nc4c(F)cc(Cl)cc4F)cc(N4CCCC4=O)c32)nc1 [TP-020n]
% of control [2]: 100%

Cc1cnc(Nc2ccc(F)cc2Cl)nc1-c1c[nH]c(C(=O)N[C@H](CO)c2cccc(Cl)c2)c1
% of inhibition [3]: 7%

N#Cc1cccc(-c2c[nH]c3ncnc(N4CCOCC4)c23)c1
% of control [4]: 100%

CNC(=O)Nc1ccc(-c2nc(N3CC4CCC(C3)O4)c3cnn(C4CCC5(CC4)OCCO5)c3n2)cc1
% of inhibition [5]: 3%

CC[C@@H]1[C@H](F)C(=O)N[C@@H]1COc1nccc2cc(C(N)=O)c(OC)cc12 [ZIMLOVISERTIB]
% of inhibition [6]: -42.6%

CN(C)CCOc1ccc(-c2nc(-c3ccncc3)c(-c3ccc4c(c3)CC/C4=N\O)[nH]2)cc1
% of control [7]: 82%

From ChEMBL document CHEMBL5465560, “Selectivity Literature for EUbOPEN Chemogenomic Library” (2024)
